US7851501B2, “Aromatic nitrocatechol compounds and their use for modulating processes mediated by cell adhesion molecules” (Revotar Biopharmaceuticals AG, priority 2005, dated 2010)

How the values were obtained:
[1] = biological target: T1, human P-Selectin-IgG-chimera (Homo sapiens, UniProt P16109); assay: Flow chamber assay, cell adhesion and rolling under flow conditions, P-selectin; type: cell-based; details: 125 μM compound; HL-60 cells; flow shear 1 dyne/cm^2; after 5 minutes continuous flow
Procedure: (§1) Values are given as normalized ratios of %-inhibition of compound x divided by %-inhibition of bimosiamose.
(§2) Flow Chamber Assay/Cell Adhesion and Rolling Under Flow Conditions
(§3) To assess the capability of compounds to inhibit cell binding under dynamic conditions resembling the flow in a blood vessel, flow chamber assays addressing/testing binding of HL-60 cells/various cell lines to P-selectin, L-selectin and E-selectin chimeric molecules are performed.
(§4) Cell attachment under flow conditions are determined using a parallel flow chamber system. A 35 mm polystyrene culture dish is coated for 1 hour at room temperature with coating buffer (50 mM tris-(hydroxymethyl)aminomethane buffer (Tris), 150 mM NaCl, 2 mM CaCl2; pH 7.4) containing human E- or P-selectin-IgG chimera at concentrations of 2.5 μg/ml or 10 μg/ml, respectively. After removal of the coating solution non specific binding sites are blocked for an additional hour with 1% BSA in coating buffer at room temperature. After washing with assay buffer (“Roswell Park Memorial Institute 1640” (RPMI 1640)+10 mM HEPES) the dish is fitted into a parallel plate laminar flow chamber (sold from Glycotech, Rockville, Md.) and mounted on an inverted phase-contrast microscope (sold from Olympus, Hamburg, Germany) equipped with a CCD camera (JVC) that is connected to a PC. Employing a peristaltic pump (sold from Ismatec, Wertheim-Mondfeld, Germany) the re-circulating system is equilibrated with assay buffer containing 125 μM compound or vehicle control (DMSO). Cells (1 million/ml) are added to the chamber and allowed to distribute for 2 minutes at a high flow rate. The flow rate is then decreased resulting in a calculated flow shear of 1 dyne/cm^2. Video sequences of 10 low power fields are digitally recorded after 5 minutes continuous flow. The percentage of inhibition is calculated from the mean number of cells per field that attached to the coated dish surface in the presence versus absence of compound […].

[2] = biological target: T2, human E-Selectin-IgG-chimera (Homo sapiens, UniProt P16581); assay: Flow chamber assay, cell adhesion and rolling under flow conditions, E-selectin; type: cell-based; details: 125 μM compound; HL-60 cells; flow shear 1 dyne/cm^2; after 5 minutes continuous flow
Procedure: as §1, §2, §3, §4

[3] = biological target: T2, human E-Selectin-IgG-chimera; assay: Sialyl Lewis x Tyrosine Sulfate Assay (sLex TSA), E-selectin; details: inhibition of binding of sLex-tyrosine sulfate polyacrylamide ligand complex
Procedure: (§5) Compounds of the present invention are assayed on a molecular level for their ability to inhibit the binding of P-, L-, or E-selectin chimeric molecules to sLe^x and tyrosinesulfate residues linked to a polymeric matrix as a PSGL-1 substitute. Selected IC50-values are determined.
Microtiter plates are coated overnight in carbonate buffer pH9.6 with goat anti human Fc mAB (10 μg/ml). After washing in assay buffer (25 mM 4-(2-hydroxyethyl)-1-piperazineethanesulfonic acid (HEPES), 150 mM NaCl, 1 mM CaCl2 pH7.4) and blocking (3% bovine serum albumin (BSA) in assay buffer) plates are incubated for 2 h at 37° C. with human P-Selectin-IgG-chimera (0.61 nM respectively 150 ng/mL) or human L-Selectin-IgG-chimera (0.61 nM respectively 89 ng/mL) or human E-Selectin-IgG-chimera (0.61 nM respectively 131 ng/mL). 5 μl of sLe^x-tyrosine sulfate polyacrylamide (1 mg/ml) carrying 15% sLe^x, 10% Tyrosine-sulfate and 5% biotin is complexed with […] Streptavidin-Peroxidase solution (1 mg/ml) and 25 μl assay buffer without CaCl2. For use in the assay, the ligand complex is diluted 1:10000 in assay buffer and further diluted 1:1 with varying amounts of compounds in assay buffer incl. 2% DMSO. […] Bound sLe^x-Tyrosine sulfate ligand complex is determined by measuring optical density at 450 nm vs. 620 nm in a Fusion alpha-FP reader (sold from Packard Bioscience, Dreieich, Germany).

[4] = biological target: human L-Selectin-IgG-chimera (Homo sapiens, UniProt P14151); assay: Sialyl Lewis x Tyrosine Sulfate Assay (sLex TSA), L-selectin; details: inhibition of binding of sLex-tyrosine sulfate polyacrylamide ligand complex
Procedure: as §5
(§6) Microtiter plates are coated overnight in carbonate buffer pH9.6 with goat anti human Fc mAB (10 μg/ml). After washing in assay buffer (25 mM 4-(2-hydroxyethyl)-1-piperazineethanesulfonic acid (HEPES), 150 mM NaCl, 1 mM CaCl2 pH7.4) and blocking (3% bovine serum albumin (BSA) in assay buffer) plates are incubated for 2 h at 37° C. with human P-Selectin-IgG-chimera (0.61 nM respectively 150 ng/mL) or human L-Selectin-IgG-chimera (0.61 nM respectively 89 ng/mL) or human E-Selectin-IgG-chimera (0.61 nM respectively 131 ng/mL). 5 μl of sLe^x-tyrosine sulfate polyacrylamide (1 mg/ml) carrying 15% sLe^x, 10% Tyrosine-sulfate and 5% biotin is complexed with […] Streptavidin-Peroxidase solution (1 mg/ml) and 25 μl assay buffer without CaCl2. For use in the assay, the ligand complex is diluted 1:10000 in assay buffer and further diluted 1:1 with varying amounts of compounds in assay buffer incl. 2% DMSO. This mixture is added to the wells precoated with E- or P-selectin. After incubation for 2 h at 37° C., wells are washed for six times with in assay buffer incl. 0.005% Polyoxyethylenesorbitan monolaurate (TWEEN 20), developed for 10-15 min with 20 μl 3,3′,5,5′-tetramethylbenzidine (TMB)/H2O2 substrate solution and stopped with 20 μl 1M H2SO4. Bound sLe^x-Tyrosine sulfate ligand complex is determined by measuring optical density at 450 nm vs. 620 nm in a Fusion alpha-FP reader (sold from Packard Bioscience, Dreieich, Germany).

[5] = biological target: T1, human P-Selectin-IgG-chimera; assay: Sialyl Lewis x Tyrosine Sulfate Assay (sLex TSA), P-selectin; details: inhibition of binding of sLex-tyrosine sulfate polyacrylamide ligand complex
Procedure: as §5, §6

Sequence of human L-Selectin-IgG-chimera (P14151 with tags, fused parts or gaps limits assumed): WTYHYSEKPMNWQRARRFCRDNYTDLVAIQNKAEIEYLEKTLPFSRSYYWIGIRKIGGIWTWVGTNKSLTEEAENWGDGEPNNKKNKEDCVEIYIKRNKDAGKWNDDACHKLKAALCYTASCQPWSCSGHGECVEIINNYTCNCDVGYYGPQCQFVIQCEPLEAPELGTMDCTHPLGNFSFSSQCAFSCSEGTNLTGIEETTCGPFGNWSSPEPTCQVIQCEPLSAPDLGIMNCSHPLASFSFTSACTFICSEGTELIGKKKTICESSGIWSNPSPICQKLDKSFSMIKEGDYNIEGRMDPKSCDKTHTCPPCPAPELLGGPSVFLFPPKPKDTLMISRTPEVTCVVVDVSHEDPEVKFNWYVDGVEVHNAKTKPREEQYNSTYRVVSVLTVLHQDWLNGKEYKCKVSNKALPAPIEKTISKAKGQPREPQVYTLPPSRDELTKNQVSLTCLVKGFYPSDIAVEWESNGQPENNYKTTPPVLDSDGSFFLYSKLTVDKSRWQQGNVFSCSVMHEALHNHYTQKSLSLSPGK
T1 sequence (P16109 with tags, fused parts or gaps limits assumed): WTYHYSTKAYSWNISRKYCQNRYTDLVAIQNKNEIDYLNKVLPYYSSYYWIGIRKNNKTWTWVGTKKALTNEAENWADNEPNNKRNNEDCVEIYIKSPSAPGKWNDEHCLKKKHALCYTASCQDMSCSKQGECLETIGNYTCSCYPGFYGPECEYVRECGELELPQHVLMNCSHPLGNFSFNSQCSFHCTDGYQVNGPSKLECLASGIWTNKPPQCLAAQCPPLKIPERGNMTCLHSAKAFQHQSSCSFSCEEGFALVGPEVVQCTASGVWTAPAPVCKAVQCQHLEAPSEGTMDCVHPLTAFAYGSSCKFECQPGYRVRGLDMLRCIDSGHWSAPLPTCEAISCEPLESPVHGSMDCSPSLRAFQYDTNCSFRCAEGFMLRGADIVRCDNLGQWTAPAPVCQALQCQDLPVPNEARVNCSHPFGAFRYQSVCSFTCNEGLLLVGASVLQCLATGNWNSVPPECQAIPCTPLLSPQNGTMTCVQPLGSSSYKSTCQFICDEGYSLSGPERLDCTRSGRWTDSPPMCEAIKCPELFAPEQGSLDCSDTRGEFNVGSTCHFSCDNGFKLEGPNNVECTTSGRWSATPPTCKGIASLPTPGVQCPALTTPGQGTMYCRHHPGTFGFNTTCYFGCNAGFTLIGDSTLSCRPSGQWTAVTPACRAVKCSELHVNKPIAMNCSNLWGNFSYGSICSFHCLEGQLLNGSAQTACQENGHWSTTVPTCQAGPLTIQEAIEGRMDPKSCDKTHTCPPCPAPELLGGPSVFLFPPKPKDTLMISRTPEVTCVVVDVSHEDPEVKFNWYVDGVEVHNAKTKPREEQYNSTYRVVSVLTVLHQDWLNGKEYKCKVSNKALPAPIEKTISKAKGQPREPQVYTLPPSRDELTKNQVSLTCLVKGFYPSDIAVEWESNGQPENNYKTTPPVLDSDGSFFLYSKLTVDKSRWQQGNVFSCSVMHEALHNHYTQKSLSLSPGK
T2 sequence (P16581 with tags, fused parts or gaps limits assumed): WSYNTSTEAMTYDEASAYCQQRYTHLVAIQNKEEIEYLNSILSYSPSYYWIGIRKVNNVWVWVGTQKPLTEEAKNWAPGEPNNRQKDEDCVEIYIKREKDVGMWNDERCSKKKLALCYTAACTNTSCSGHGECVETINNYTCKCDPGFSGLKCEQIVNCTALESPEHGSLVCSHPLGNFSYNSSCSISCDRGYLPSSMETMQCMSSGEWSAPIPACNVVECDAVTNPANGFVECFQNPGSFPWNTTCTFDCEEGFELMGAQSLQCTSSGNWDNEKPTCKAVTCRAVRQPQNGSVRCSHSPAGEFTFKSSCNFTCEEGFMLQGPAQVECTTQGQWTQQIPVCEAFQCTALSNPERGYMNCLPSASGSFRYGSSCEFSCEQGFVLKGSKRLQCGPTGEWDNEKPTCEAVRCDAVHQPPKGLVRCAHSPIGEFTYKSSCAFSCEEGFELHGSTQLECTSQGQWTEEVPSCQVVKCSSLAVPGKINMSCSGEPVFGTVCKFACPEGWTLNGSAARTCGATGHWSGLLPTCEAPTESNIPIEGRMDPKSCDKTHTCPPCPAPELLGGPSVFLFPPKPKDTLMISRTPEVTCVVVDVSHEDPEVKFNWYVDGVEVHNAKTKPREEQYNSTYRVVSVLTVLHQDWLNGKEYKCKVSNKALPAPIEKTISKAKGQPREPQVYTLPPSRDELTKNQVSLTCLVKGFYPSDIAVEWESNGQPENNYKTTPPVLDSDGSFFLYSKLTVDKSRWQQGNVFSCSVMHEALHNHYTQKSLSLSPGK

Row | SMILES | P-Selectin normalized ratio of %-inhibition of compound divided by %-inhibition of bimosiamose [1] [Ratio] | E-Selectin normalized ratio of %-inhibition of compound divided by %-inhibition of bimosiamose [2] | IC50 [3] [µM] | IC50 [4] [µM] | IC50 [5] [µM]
1 | O=C(O)Cc1ccc(-c2ccccc2NC(=O)Cc2cc(O)c(O)cc2[N+](=O)[O-])s1 [Compound 110, (5-{2-[2-(4,5-Dihydroxy-2-nitro-phenyl)-acetylamino]-phenyl}-thiophen-2-yl)-acetic acid] | 1.26 | 1.00 Ratio | – | – | –
2 | Cc1oc(-c2ccc(NC(=O)c3cccc(-c4cc(O)c(O)cc4[N+](=O)[O-])c3)cc2)cc1C(=O)O [Compound 113, 2-Methyl-5-{4-[(2′-nitro-4′,5′-dihydroxy-biphenyl-3-carbonyl)-amino]-phenyl}-furan-3-carboxylic acid] | 1.30 | 1.37 Ratio | – | – | –
3 | O=C(O)Cc1ccc(-c2ccccc2NC(=O)c2cccc(-c3cc([N+](=O)[O-])cc(O)c3O)c2)s1 [Compound 116, (5-{2-[(2′,3′-Dihydroxy-5′-nitro-biphenyl-3-carbonyl)-amino]-phenyl}-thiophen-2-yl)-acetic acid] | 1.32 | 1.23 Ratio | 308 | 8.7 | 5.2
4 | O=C(Nc1ccccc1)c1cccc(-c2cc(O)c(O)cc2[N+](=O)[O-])c1 [Compound 117, 4′,5′-Dihydroxy-2′-nitro-biphenyl-3-carboxylic acid phenylamide] | 0.83 | n.s. | – | – | –
5 | O=C(O)Cc1ccc(-c2ccccc2NC(=O)c2cccc(-c3cc(O)c(O)cc3[N+](=O)[O-])c2)s1 [Compound 118, (5-{2-[(4′,5′-Dihydroxy-2′-nitro-biphenyl-3-carbonyl)-amino]-phenyl}-thiophen-2-yl)-acetic acid] | 1.19 | 0.84 Ratio | – | 39.2 | 19.2
6 | O=C(Nc1ccccc1-c1ccc(C(=O)O)s1)c1cccc(-c2cc(O)c(O)cc2[N+](=O)[O-])c1 [Compound 119, 5-{2-[(4′,5′-Dihydroxy-2′-nitro-biphenyl-3-carbonyl)-amino]-phenyl}-thiophene-2-carboxylic acid] | 1.67 | 0.86 Ratio | 272 | 17.1 | 11
7 | O=C(Nc1ccccc1-c1ccc(C(=O)O)s1)c1cccc(-c2cc([N+](=O)[O-])cc(O)c2O)c1 [Compound 120, 5-{2-[(2′-3′-Dihydroxy-5′-nitro-biphenyl-3-carbonyl)-amino]-phenyl}-thiophene-2-carboxylic acid] | 1.72 | 1.01 Ratio | – | 6.6 | 4.6
8 | O=C(O)Cc1ccc(-c2ccccc2NC(=O)Cc2cc(O)c(O)c([N+](=O)[O-])c2)s1 [Compound 121, (5-{2-[2-(3,4-Dihydroxy-5-nitro-phenyl)-acetylamino]-phenyl}-thiophen-2-yl)-acetic acid] | 0.89 | 0.98 Ratio | – | – | –
